# Reference: US20260130933A1, “PHARMACEUTICAL COMPOSITION FOR PREVENTION OR TREATMENT OF NEPHROPATHY AND/OR DIABETES MELLITUS, COMPRISING ENAVOGLIFLOZIN” (DAEWOONG PHARMACEUTICAL CO., LTD., priority 2022, published 2026)
# Experiment: Example 2: phase 3 trial, enavogliflozin 0.3 mg vs dapagliflozin 10 mg once a day for 24 weeks added to metformin in patients with type 2 diabetes (same efficacy, exploratory and safety endpoints)
# Type: in vivo, human
# Description: Subjects who met the inclusion/exclusion criteria were administered a placebo of the clinical trial drug under single-blind (subject blinding) conditions during a 2-week run-in period while continuing to receive metformin. […] The randomized subjects were administered two tablets of the clinical trial drug for each administration group once a day, and then visited the institution at weeks 6, 12, 18, and 24 during the 24-week administration period to conduct efficacy and safety evaluations.
# • 1. Change in HbA1c at week 24 after administration of clinical trial drug compared to Visit 2 (randomization)
# • 1. Change in HbA1c at each time point of weeks 6, 12, and 18 after administration of clinical trial drug compared to Visit 2 (randomization) • 2. Change in FPG at each time point of weeks 6, 12, 18, and 24 after administration of clinical trial drug compared to Visit 2 (randomization) • 3. Proportion of subjects achieving HbA1c<7% at each time point of weeks 6, 12, 18, and 24 after administration of clinical trial drug • 4. Proportion of subjects achieving HbA1c<6.5% at each time point of weeks 6, 12, 18, and 24 after administration of clinical trial drug • 5. Proportion of subjects achieving therapeutic response (HbA1c change (HbA1c at Visit 2-HbA1c at each evaluation time point)>0.5% or HbA1c<7% at each evaluation time point compared to Visit 2 (randomization)) at each time point of weeks 6, 12, 18 and 24 after administration of clinical trial drug
# • 1. Change in fasting c-peptide at each time point of weeks 6, 12, 18, and 24 after administration of clinical trial drug compared to Visit 2 (randomization) • 2. Change in body weight at each time point of weeks 6, 12, 18, and 24 after administration of clinical trial drug compared to Visit 2 (randomization) • 3. Change in fasting lipid concentration (total cholesterol, LDL-C, HDL-C, and triglycerides) at each time point of weeks 6, 12, 18, and 24 after administration of clinical trial drug compared to Visit 2 (randomization) • 4. Changes in systolic or diastolic blood pressure at each time point of weeks 6, 12, 18, and 24 after administration of clinical trial drug compared to Visit 2 (randomization) • 5. Changes in β-cell function and insulin resistance measured by HOMA-β and HOMA-IR at each time point of weeks 6, 12, 18, and 24 after administration of clinical trial drug compared to Visit 2 (randomization) • 6. Changes in renal function-related indicators (UACR, UGCR) measured by UACR at each time point of weeks 6, 12, 18, and 24 after administration of clinical trial drug compared to Visit 2 (randomization) • 7. Changes in obesity-related indicators (adiponectin, leptin) at each time point of weeks 6, 12, 18, and 24 after administration of clinical trial drug compared to Visit 2 (randomization)
# [1] = Week 12, mPPS1, enavogliflozin minus dapagliflozin
# [2] = Week 12, mPPS2, enavogliflozin minus dapagliflozin
# [3] = Week 18, PPS, enavogliflozin minus dapagliflozin
smiles,measurement,setting,value
"OC[C@H]1O[C@@H](c2cc(Cc3ccc(C4CC4)cc3)c(Cl)c3c2CCO3)[C@H](O)[C@@H](O)[C@@H]1O [Enavogliflozin, (2S,3R,4R,5S,6R)-2-(7-chloro-6 (4-cyclopropylbenzyl)-2,3-dihydrobenzofuran-4-yl)-6-(hydroxymethyl)tetrahydro-2H-pyran-3,4,5-triol]","HDL-C, Mean (SD)","Week 12, mPPS1",53.08(10.89) mg/dL
same,"HDL-C, Median","Week 12, mPPS1",52.50 mg/dL
same,"LDL-C change from baseline, ANCOVA LS mean (SE)","Week 12, mPPS1",1.86(1.68) mg/dL
same,"LDL-C change from baseline, Mean (SD)","Week 12, mPPS1",0.78(16.26) mg/dL
same,"LDL-C change from baseline, Median","Week 12, mPPS1",1.00 mg/dL
same,"LDL-C, Mean (SD)","Week 12, mPPS1",87.58(30.26) mg/dL
same,"LDL-C, Median","Week 12, mPPS1",79.00 mg/dL
same,"Triglycerides change from baseline, ANCOVA LS mean (SE)","Week 12, mPPS1",−7.53(4.80) mg/dL
same,"Triglycerides change from baseline, Mean (SD)","Week 12, mPPS1",−5.00(57.85) mg/dL
same,"Triglycerides change from baseline, Median","Week 12, mPPS1",3.00 mg/dL
same,"Triglycerides, Mean (SD)","Week 12, mPPS1",116.23(59.46) mg/dL
same,"Triglycerides, Median","Week 12, mPPS1",100.00 mg/dL
same,"HDL-C change from baseline, LS mean difference",[1],0.06 mg/dL
same,"LDL-C change from baseline, LS mean difference",[1],1.30 mg/dL
same,"triglycerides change from baseline, LS mean difference",[1],2.57 mg/dL
same,"Diastolic blood pressure change from baseline, ANCOVA LS mean (SE)","Week 12, mPPS2",−4.19 mmHg
same,"Diastolic blood pressure change from baseline, Mean (SD)","Week 12, mPPS2",−4.33 mmHg
same,"Diastolic blood pressure change from baseline, Median","Week 12, mPPS2",−4.00 mmHg
same,"Diastolic blood pressure, Mean (SD)","Week 12, mPPS2",72.66 mmHg
same,"Diastolic blood pressure, Median","Week 12, mPPS2",72.00 mmHg
same,"Systolic blood pressure change from baseline, ANCOVA LS mean (SE)","Week 12, mPPS2",−5.86(1.04) mmHg
same,"Systolic blood pressure change from baseline, Mean (SD)","Week 12, mPPS2",−6.42(9.73) mmHg
same,"Systolic blood pressure change from baseline, Median","Week 12, mPPS2",−6.00 mmHg
same,"Systolic blood pressure, Mean (SD)","Week 12, mPPS2",123.29(13.73) mmHg
same,"Systolic blood pressure, Median","Week 12, mPPS2",123.00 mmHg
same,"diastolic blood pressure change from baseline, LS mean difference",[2],0.16 mmHg
same,"systolic blood pressure change from baseline, LS mean difference",[2],0.26 mmHg
same,"Adiponectin change from baseline, ANCOVA LS mean (SE)","Week 18, PPS",1.33 µg/mL
same,"Adiponectin change from baseline, Mean (SD)","Week 18, PPS",1.26 µg/mL
same,"Adiponectin change from baseline, Median","Week 18, PPS",1.14 µg/mL
same,"Adiponectin, Mean (SD)","Week 18, PPS",8.3 µg/mL
same,"Adiponectin, Median","Week 18, PPS",7.33 µg/mL
same,"HOMA-IR change from baseline, ANCOVA LS mean (SE)","Week 18, PPS",−1.79
same,"HOMA-IR change from baseline, Mean (SD)","Week 18, PPS",−1.58
same,"HOMA-IR change from baseline, Median","Week 18, PPS",−0.94
same,"HOMA-IR, Mean (SD)","Week 18, PPS",1.86
same,"HOMA-IR, Median","Week 18, PPS",1.51
same,"HOMA-β change from baseline, ANCOVA LS mean (SE)","Week 18, PPS",10.97
same,"HOMA-β change from baseline, Mean (SD)","Week 18, PPS",10.63
same,"HOMA-β change from baseline, Median","Week 18, PPS",5.75
same,"HOMA-β, Mean (SD)","Week 18, PPS",56.39
same,"HOMA-β, Median","Week 18, PPS",40.45
same,"Leptin change from baseline, ANCOVA LS mean (SE)","Week 18, PPS",-2.49 ng/mL
same,"Leptin change from baseline, Mean (SD)","Week 18, PPS",-2.50 ng/mL
same,"Leptin change from baseline, Median","Week 18, PPS",-1.32 ng/mL
same,"Leptin, Mean (SD)","Week 18, PPS",9.71 ng/mL
same,"Leptin, Median","Week 18, PPS",7.22 ng/mL
same,"UACR change from baseline, ANCOVA LS mean (SE)","Week 18, PPS",-23.05 g/kg
same,"UACR change from baseline, Mean (SD)","Week 18, PPS",-17480 mg/kg
same,"UACR change from baseline, Median","Week 18, PPS",-0.70 g/kg
same,"UACR, Mean (SD)","Week 18, PPS",20320 mg/kg
same,"UACR, Median","Week 18, PPS",9.80 g/kg
same,"UGCR change from baseline, ANCOVA LS mean (SE)","Week 18, PPS",60.97 mg/mg
same,"UGCR change from baseline, Mean (SD)","Week 18, PPS",59.41 mg/mg
same,"UGCR change from baseline, Median","Week 18, PPS",57.54 mg/mg
same,"UGCR, Mean (SD)","Week 18, PPS",60.98 mg/mg
same,"UGCR, Median","Week 18, PPS",58.42 mg/mg
same,"HOMA-IR change from baseline, LS mean difference",[3],−0.32
same,"HOMA-β change from baseline, LS mean difference",[3],−2.53
same,"UACR change from baseline, LS mean difference",[3],-10.10 g/kg
same,"UGCR change from baseline, LS mean difference",[3],18.25 mg/mg
same,"leptin change from baseline, LS mean difference",[3],-1.26 ng/mL
same,"HDL-C change from baseline, ANCOVA LS mean (SE)","Week 18, mPPS1",2.46(0.66) mg/dL
same,"HDL-C change from baseline, Mean (SD)","Week 18, mPPS1",1.89(6.20) mg/dL
same,"HDL-C change from baseline, Median","Week 18, mPPS1",2.50 mg/dL
same,"HDL-C, Mean (SD)","Week 18, mPPS1",53.49(11.50) mg/dL
same,"HDL-C, Median","Week 18, mPPS1",52.50 mg/dL
same,"LDL-C change from baseline, ANCOVA LS mean (SE)","Week 18, mPPS1",1.42(1.86) mg/dL
same,"LDL-C change from baseline, Mean (SD)","Week 18, mPPS1",0.50(14.20) mg/dL
same,"LDL-C change from baseline, Median","Week 18, mPPS1",-1.00 mg/dL
